Experimental data reported in patent publication US20250285714A1, “A PHARMACEUTICAL PLATFORM TECHNOLOGY FOR DRUG DISCOVERY AND CONSUMER HEALTH PRODUCT DEVELOPMENT” (SINOVEDA CANADA INC., priority 2021, published 2025).

Tests used:
Format in all cases: cell-based, human
[1] = system: HepG2 cells; assay: HepG2 cell proliferation XTT assay; conditions: HepG2 in-vitro cell model
Procedure: Cell assays: HepG2 cells were obtained from the American Type Culture Collection (ATCC). Cryopreserved cells in DMEM with 10% DMSO were thawed and diluted 10-fold in phenol red free DMEM media containing fetal 10% bovine serum, 100 μg/ml penicillin/streptomycin, supplemented with Glutamax™ and sodium pyruvate. Subsequently, cells were centrifuged at 20 g for 10 minutes. The cells were resuspended in the same media to a concentration of 2×10^5 cells/ml. Ninety-six well cell culture treated flat bottom plates were seeded with 7.5×10^3 HepG2 cells and incubated at 37° C., 5% CO2, >95% relative humidity for 18 hours to allow cellular adhesion after which media was replaced with like media containing 1-20% FBS and various test compounds (50 μg/ml to 50 ng/ml). […] Formazan production was measured 450 nm Varioskan lux at on a spectrophotometer. Non-specific absorption was measured at 660 nm and subtracted from the reference measurement at 450 nm. […]
Ternary cannabinoid assays: For tertiary cannabinoid compound mixtures, ratio mixtures of CBD:CBC:CBN were randomly chosen between 9:3:1 to 1:1:1 and CBN:CBC:CBD between 3:2:1 to 1:1:1 in IMDM media supplemented with 20% FBS and 1% ethanol and CBD:CBC:CBN ratios between 9:3:1 to 1:1:1 in DMEM media supplemented with 1% FBS. Cannabinoids were mixed and diluted in the media ready for serial dilution. […]

[2] = system: HepG2 cells; assay: In-cell Western-blot protein expression in treated HepG2 cells; conditions: six hour treatment; CBD 17, CBC 23, CBN 20, Sorafenib 12, SCI-111 17, SCI-521 17 μg/ml
Procedure: In-cell Western-blot analysis: Protein expression was assessed by seeding 1000 HepG2 cells/well from cyro frozen stocks into 384 well optical bottom black culture plates from Thermo-Scientific (item 142761) in IMDM media with 20% FBS and 1% ethanol. […] After a six hour treatment, the cells were fixated with 4% formaldehyde for 15 minutes, permeated with 0.1% triton-x100 for 10 minutes, and left in blocking buffer (phosphate buffered saline (PBS) with 3% bovine serum albumin (BSA)) overnight at 4 degrees Celsius. The following day, the cells were rinsed with PBS, incubated with 25 μl PBS containing primary antibody (Table 1) for 3 hours at 25° C. Subsequently, the primary antibody was removed, cells were rinsed twice with PBS, and incubated with 25 μl of PBS containing the secondary antibody (Rabbit: Alexa Fluor 790 donkey anti-rabbit IgG (H+L) Lot 2409042; Mouse: Alexa Fluor 790 donkey anti-mouse IgG (H+L) Lot 2300923) at a concentration of 1:2000. Draq5 (1:2000) was added for normalization of data. After an hour incubation in the secondary antibody, the cells were rinsed with PBS and readings at 700 and 800 nm were acquired on a Licor Odyssey fluorescence imager with a resolution of 21 μm. Analysis was subsequently performed with Empiria Studio 2.1. A total of 5 samples were collected per antibody and the sample size was reduced to 3 for the statistical analysis.

[3] = system: HepG2 cells; assay: rtPCR TaqMan array of cancer pathway genes in treated HepG2 cells; conditions: 6 h; CBD 17, CBC 23, CBN 20, 1:1:1 17, sorafenib 12 μg/ml
Procedure: rt-PCR: Target cancer gene pathways will be analyzed using a custom Taqman array card exploring 91 unique genes involved with a few cancer pathways.
Two million HepG2 cells in IMDM media with 20% FBS, and 1% ethanol were seeded in T75 flasks and incubated at 37° C., 7.5% CO2 until 70-80% confluent (approx. […]). The media were replenished with media containing individual cannabinoids (CBD 17 μg/ml, CBC 23 μg/ml, CBN 20 μg/ml) and cannabinoid mixture of CBD:CBC:CBN of 1:1:1 (17 μg/ml) and incubated for 6 hours prior to harvest. […] Untreated cells were included as a negative control Glyceraldehyde-3-phosphate dehydrogenase (GAPDH) was included as an endogenous control and used for normalization of the data.
RNA was extracted using Invitrogen's Dynabead mRNA DIRECT kit using the recommended protocol to provide 50 μL of a purified mRNA solution. […] of RT master mix was mixed into the mRNA solution and the mixture left to react at 37° C. for 60 minutes. Reverse transcriptase inactivation was performed at 95° C. for 5 minutes and the resulting cDNA samples were kept at 4° C. until use. Fifty-five microliters of TaqMan Fast Advance master mix were added to an equal amount of cDNA sample containing 1 μg/100 μl of cDNA, which was loaded into each card reservoir. The cards were centrifuged twice at 1200 RPM for 3 minutes in a Legend XFR centrifuge and the rtPCR reaction was conducted in a QuantStudio7 PCR instrument using the standard settings with 40 amplification cycles.
Assessment of cancer gene pathways were carried out using custom designed TaqMan array cards exploring 86 genes linked to numerous cancer related pathways. […] In addition to individual pathways, genes linked to specific cellular processes were also explored.

C=C(C)[C@@H]1CCC(C)=C[C@H]1c1c(O)cc(CCCCC)cc1O [CBD, Cannabidiol, reference compound]
Potency/efficacy compared to sorafenib [1]: more potent | Protein fold change, DVLD (Cellular Adhesion) [2]: 1.67 Fold change | Protein fold change, HER2 (Receptor) [2]: 1.34 Fold change | Protein fold change, MEK PO4 (MAP kinase/PI3K) [2]: 1.40 Fold change | Protein fold change, MET PO4 (Receptor) [2]: 1.52 Fold change | Protein fold change, PI3K (MAP kinase/PI3K) [2]: 2.05 Fold change | Protein fold change, PTEN (MAP kinase/PI3K) [2]: 0.80 Fold change | Protein fold change, TEAD2 (HIPPO signaling) [2]: 1.46 Fold change | Protein fold change, VEGA (Angiogenesis) [2]: 1.33 Fold change | Protein fold change, c-MYC (Apoptosis) [2]: 1.55 Fold change | Protein fold change, p53 (Apoptosis) [2]: 1.28 Fold change | rtPCR Log2 fold change relative to untreated cells, BAD (Apoptosis) [3]: −1.49 Log2 fold change | rtPCR Log2 fold change relative to untreated cells, BAX (Apoptosis) [3]: −1.103 Log2 fold change | rtPCR Log2 fold change relative to untreated cells, BCL2 (Apoptosis) [3]: 4.139 Log2 fold change | rtPCR Log2 fold change relative to untreated cells, BCL2L1 (Apoptosis) [3]: −1.414 Log2 fold change | rtPCR Log2 fold change relative to untreated cells, CAMK1 (Ca signaling) [3]: −1.329 Log2 fold change | rtPCR Log2 fold change relative to untreated cells, CASP3 (Apoptosis) [3]: −1.165 Log2 fold change | rtPCR Log2 fold change relative to untreated cells, CCND1 (Cell Cycle Arrest) [3]: −1.396 Log2 fold change | rtPCR Log2 fold change relative to untreated cells, CCND2 (Cell Cycle Arrest) [3]: −1.032 Log2 fold change | rtPCR Log2 fold change relative to untreated cells, CDK1 (Cell Cycle Arrest) [3]: −1.257 Log2 fold change | rtPCR Log2 fold change relative to untreated cells, CDK4 (Cell Cycle Arrest) [3]: −1.517 Log2 fold change | rtPCR Log2 fold change relative to untreated cells, CDK6 (Cell Cycle Arrest) [3]: −1.224 Log2 fold change | rtPCR Log2 fold change relative to untreated cells, CTNNB1 (Cellular Adhesion) [3]: −1.164 Log2 fold change | rtPCR Log2 fold change relative to untreated cells, GSK3B (Cellular Adhesion) [3]: −1.409 Log2 fold change | rtPCR Log2 fold change relative to untreated cells, MAP1LC3A (MAP kinase) [3]: −1.527 Log2 fold change | rtPCR Log2 fold change relative to untreated cells, MAP3K (MAP kinase) [3]: −1.213 Log2 fold change | rtPCR Log2 fold change relative to untreated cells, MAPK8 (MAP kinase) [3]: −2.27 Log2 fold change | rtPCR Log2 fold change relative to untreated cells, MITF (Drug Resistance) [3]: −4.196 Log2 fold change | rtPCR Log2 fold change relative to untreated cells, MNT (Cell Cycle Arrest) [3]: −1.533 Log2 fold change | rtPCR Log2 fold change relative to untreated cells, MTOR (PI3K/AKT/MTOR) [3]: −1.055 Log2 fold change | rtPCR Log2 fold change relative to untreated cells, PAK3 (MAP kinase) [3]: −1.926 Log2 fold change | rtPCR Log2 fold change relative to untreated cells, PIK3C2A (PI3K/AKT/MTOR) [3]: −1.161 Log2 fold change | rtPCR Log2 fold change relative to untreated cells, PPARG (Receptors) [3]: −1.826 Log2 fold change | rtPCR Log2 fold change relative to untreated cells, RAC1 (MAP kinase) [3]: −1.274 Log2 fold change | rtPCR Log2 fold change relative to untreated cells, RASA1 (MAP kinase) [3]: −1.356 Log2 fold change | rtPCR Log2 fold change relative to untreated cells, ROCK1 (Cellular Adhesion) [3]: −1.013 Log2 fold change | rtPCR Log2 fold change relative to untreated cells, SMAD2 (TGF signaling) [3]: −1.437 Log2 fold change | rtPCR Log2 fold change relative to untreated cells, TAZ (HIPPO) [3]: −1.766 Log2 fold change | rtPCR Log2 fold change relative to untreated cells, gene name not printed (Apoptosis, row r54) [3]: −1.09 Log2 fold change | rtPCR Log2 fold change relative to untreated cells, gene name not printed (Cell Cycle Arrest, row r42) [3]: −1.332 Log2 fold change | rtPCR Log2 fold change relative to untreated cells, gene name not printed (Cellular Adhesion, row r57) [3]: −1.436 Log2 fold change | rtPCR Log2 fold change relative to untreated cells, gene name not printed (PI3K/AKT/MTOR, row r20) [3]: −1.565 Log2 fold change | rtPCR Log2 fold change relative to untreated cells, gene name not printed (PI3K/AKT/MTOR, row r22) [3]: −1.174 Log2 fold change | rtPCR Log2 fold change relative to untreated cells, gene name not printed (Receptors, row r7) [3]: −6.09 Log2 fold change
